Patent US3940438A, “Crystalline racemic 9α,11α,15(S)-trihydroxy-5-cis,13-trans-prostadienoic acid” (priority 1973, dated 1976)

Experiments:
[1] = Storage at 25 °C with constant exposure to the air; assay type: physicochemical
Experimental: The figures also show the separation of PGF2α and its 15-epimer. […] In FIGS. 4, 4a and 4b, all injections represent 100 μg of PGF2α initial samples.

physchem = test: physchem
Experimental: A weighed sample was diluted with dioxane to produce a solution which was 10μg PGF2α /μl of solution. This solution was used to calibrate the response of the differential refractometer of a Waters Assoc. Model 100 high pressure liquid chromatograph (h.p.l.c.). The calibration appears in FIG. 1. FIG. 1, the PGF2α peak height conditions are as follows: column 4 feet ×0.125 inches o.d., column of Corasil -II. Solvent 0.2% HOAc/EtOAc wherein the former is acetic acid and the latter is ethyl acetate. Flow 0.9ml/min. Reaction times: dioxane front appears at […]. PGF2α at 14 min. from injection corresponding to column void volume after void volume displacement. The numbers on the x-axis are μg injected and the numbers along the y-axis indicate detector response in inches at peak heights.
Weighed samples, 0.5-1.0 mg. ± 0.03 mg, of PGF2α and crystalline racemic PGF2α were placed in 1 dram vials. These vials were randomly divided between storage at -20° C under argon and storage at 41 ± 2°, open to the air, in a sand bath. At stipulated times samples were removed from both types of storage, diluted to 10μg PGF2α /μl, and assayed by h.p.l.c. […] Individual assays of 41° C stored samples are collected in FIG. 2. […] The open symbols are for racemic PGF2α and the closed symbols are for nat. PGF2α. The different symbols are used to indicate different samples. Replicate analysis appear as multiple used of the same symbols at any one time. […] The numbers along the x-axis are days at 41 ± 2° C and along the y-axis are percents.
Since, prostaglandins, including the dienoics, are known to be unstable, as they undergo autoxidation on exposure to air. Methods of Biochemical Analysis, Vol. 17, pages 325 to 371, 1969, published by Interscience Publishers, New York.
FIGS. 3, 3a and 3b show the traces from rapid analysis, (at 1 ml/min.). […] In FIGS. 4, 4a and 4b, all injections represent 100 μg of PGF2α initial samples.

[2] = Storage at -20 °C under argon, h.p.l.c. assay; assay type: physicochemical; settings: samples taken at stipulated times
Experimental: Natural 9α,11α,15(S)-trihydroxy-5-cis,13-trans-prostadienoic acid, natural PGF2α, prepared from total synthesis was a soft, waxy semi-crystalline compound melting in the range of 25°-32°. […] The calibration appears in FIG. 1. FIG. 1, the PGF2α peak height conditions are as follows: column 4 feet ×0.125 inches o.d., column of Corasil -II. […] Flow 0.9ml/min. Reaction times: dioxane front appears at 30 min.
Weighed samples, 0.5-1.0 mg. ± 0.03 mg, of PGF2α and crystalline racemic PGF2α were placed in 1 dram vials. These vials were randomly divided between storage at -20° C under argon and storage at 41 ± 2°, open to the air, in a sand bath. […] In FIG. 2, the loss of PGF2α on storage open to air at 41 ± 2° C is set forth. […] PGF2α. The different symbols are used to indicate different samples. […] The numbers along the x-axis are days at 41 ± 2° C and along the y-axis are percents. The crystalline racemate assayed 103 ± 3% based on the natural compound.

Which extent of oxidation ([1]; in 17 days, stated for comparison ("would be")) does the source give for `CCCCC[C@H](O)/C=C/[C@@H]1[C@@H](C/C=C\CCCC(=O)O)[C@@H](O)C[C@H]1O` (relative stereo) [Polymorph I, racemic 9α,11α,15(S)-trihydroxy-5-cis,13-trans-prostadienoic acid] here?
Its extent of oxidation is “over half oxidized in 17 days”.

Which “long term storage stability (overall finding)” value (physchem) does the source give for `CCCCC[C@H](O)/C=C/[C@@H]1[C@@H](C/C=C\CCCC(=O)O)[C@@H](O)C[C@H]1O` (relative stereo) [Polymorph II, crystalline racemic 9α,11α,15(S)-trihydroxy-5-cis,13-trans-prostadienoic acid] here?
The value was “superior long term storage stability”.

And the change after storage (physchem; after 14 days, open to air at 41 ± 2 °C)?
Its change after storage is “unchanged after 14 days”.

What about the “assay of crystalline racemate based on the natural compound” value (physchem; h.p.l.c., differential refractometer, based on natural PGF2α) of the same compound?
The value was 103 ± 3%.

What about the degraded (physchem; storage open to air) of the same compound?
Its degraded is 3%.

And the “assay by h.p.l.c. against fresh standards after storage” value [2]?
The value was “within experimental error of fresh standards (±6%)”.

And the “crystalline loss on storage” value ([1]; 25 °C, constant exposure to the air, after more than one year)?
Its value is “without any evidence of crystalline loss after more than one year”.

What does the source list for `CCCCC[C@H](O)/C=C/[C@@H]1[C@@H](C/C=C\CCCC(=O)O)[C@@H](O)C[C@H]1O` [PGF2α, Natural 9α,11α,15(S)-trihydroxy-5-cis,13-trans-prostadienoic acid, reference compound]?
identity of degradation products versus 15-epi-PGF2α (physchem): Neither of the degradation products seen in the PGF2α sample stored 9 days at 41 °C corresponds to 15-epi-PGF2α; assay by h.p.l.c. against fresh standards after storage [2]: within experimental error of fresh standards (±6%)

With `CCCCC[C@H](O)/C=C/[C@@H]1[C@@H](C/C=C\CCCC(=O)O)[C@@H](O)C[C@H]1O` [oily PGF2α, reference compound] as the compound, how does the “course of degradation by oxidation” value (physchem) read?
Its value is “degrades by oxidation rapidly at first suggestive of a surface reaction, and then more slowly”.

What about the “measured half life of degradation by oxidation” value (physchem) of the same compound?
Its value is 17 days.
